# Measured values taken from patent US6030943A, “Dehydrodidemnin B as an L-type calcium channel enhancer” (priority 1998, dated 2000).
# Starred links: 1 amine or outer side, 2 acyl side, 3 side chain; linkers in the order of their positions; H or OH if unused. Positions of bridges follow the written chain, without caps; N, C: chain ends. Non-standard residues stand in square brackets, D forms with d. Residues, ends and D or L forms follow the SMILES beside them. *: point of attachment. X1 = CC[C@H](C)[C@@H](N[*:1])[C@@H](O)CC(=O)O[C@H](C(=O)[C@H](C)C(=O)[*:2])C(C)C; NMeY = CN[C@@H](Cc1ccc(O)cc1)C(=O)O; dNMeL = CN[C@H](CC(C)C)C(=O)O; Pyruvoyl = CC(=O)C(=O)*
# Tests used:
# L-type calcium channel = assay: Whole-cell patch clamp measurement of calcium current (ICa) in isolated human atrial myocytes; assay type: cell-based; conditions: for action on human atrial ICa (current amplitude): whole-cell patch clamp, 22° C., composite dose-response curve (FIG. 2), compared with cells not exposed to drug
# Procedure: Human atrial myocytes were obtained from specimens of human right atrial appendage obtained during surgery from hearts of patients undergoing cardiopulmonary bypass. Tissue samples were quickly immersed in a cardioplegia solution consisting of (in mmol/L): 50 KH2 PO4, 8 MgSO4, 10 NaHO3, 5 adenosine, 25 taurine, 140 glucose, and 100 mannitol, titrated to a pH of 7.4 and bubbled with 100% O2 at 0-4° C. Specimens were then minced into 0.5-1 mm cubes and transferred to a 50 ml conical tube containing an ultra-low calcium wash solution containing (in mmol/L); 137 NaCl, 5 KH2 PO4, 1 MgSO4, 10 taurine, 10 glucose, 5 HEPES, and 100 μmol/L (μM) EGTA; pH=7.4 (22-24° C.).
# The tissue was next gently agitated by continuous bubbling with 100% O2 for 5 minutes. The tissue was then incubated in 5 ml of solution containing (in mmol/L): 137 NaCl, 5 KH2 PO4, 10 taurine, 10 glucose, 5 HEPES, supplemented with 0.1% bovine albumin, 2.2 mg/ml collagenase type V and 1.0 mg/ml protease type XXIV (Sigma Chemical), pH=7.4 (37° C.) and bubbled continuously with 100% O2. The supernatant was removed after 40 minutes and discarded. The chunks were incubated in a solution of the same ionic composition but supplemented with only collagenase and 100 μmol/L CaCl2.
# Microscopic examination of the medium was performed every 5-10 minutes to determine the number and quality of the isolated cells. When the yield appears to be maximal, the cell suspension was centrifuged for 2 minutes and the resulting pellet was resuspended in a modified Kraftbruhe solution containing (in mmol/L): 25 KCl, 10 KH2 PO4, 25 taurine, 0.5 EGTA, 22 glucose, 55 glutamic acid, and 0.1% bovine albumin, pH=7.3 (22-24° C.). Cells were used within 8 hrs after isolation. […]
# Ionic currents were measured using the whole-cell variant of the patch clamp technique. […]
# Calcium (Ca) currents were measured using an external solution having the composition (in mM): 1.8 CaCl2, 137 NaCl, 20 CsCl, 4 KCl, 1 MgCl2, 10 HEPES, 10 dextrose pH=7.4 with NaOH. […]
# [1] = Effect on blood pressure (statement, no method described); conditions: in vivo
SMILES,action on human atrial ICa (current amplitude) (L-type calcium channel),effect on blood pressure [1],"L-type calcium channel enhancement (L-type calcium channel; FIGS. 1A, 1B and 2)"
CC[C@H](C)[C@H]1NC(=O)[C@@H](NC(=O)[C@@H](CC(C)C)N(C)C(=O)[C@@H]2CCCN2C(=O)C(C)O)[C@@H](C)OC(=O)[C@H](Cc2ccc(OC)cc2)N(C)C(=O)[C@@H]2CCCN2C(=O)[C@H](CC(C)C)NC(=O)[C@@H](C)C(=O)[C@H](C(C)C)OC(=O)C[C@@H]1O (stereo partly shown) [Didemnin B],no effect,–,–
"CC[C@H](C)[C@H]1NC(=O)[C@@H](NC(=O)[C@@H](CC(C)C)N(C)C(=O)[C@@H]2CCCN2C(=O)C(C)=O)[C@@H](C)OC(=O)[C@H](Cc2ccc(OC)cc2)N(C)C(=O)[C@@H]2CCCN2C(=O)[C@H](CC(C)C)NC(=O)[C@@H](C)C(=O)[C@H](C(C)C)OC(=O)C[C@@H]1O [Aplidine, dehydrodidemnin B] (Pyruvoyl-P[dNMeL]T[X1]LP[NMeY](Me); ester 3-C)","highly effective, producing a very large increase in current amplitude",no effect on blood pressure,potent L-type calcium channel enhancer
